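Step 1: Grow cells in 96-well plates. Step 2: Expose to compound for 48 hours at 5 concentrations. Step 3: Interpolate endpoints linearly; if unreached, use highest concentration. At the GI50, growth is halved.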 Active and inactive are the calls of the source. Rule as the data show it: active = GI50 up to about 1.1 µM and inactive = higher.

Test systems include SK-MEL-28; Hs-578T; SK-MEL-2; CCRF-CEM; CAKI-1; KM12; T47D; NCI-H460; OVCAR-3; RPMI-8226; UACC-257; NCI/ADR-RES; COLO 205; A549; DU-145; SF-539; UO-31; OVCAR-5; SK-MEL-5; TK-10.
What all share (test): NCI-60 cell line screen, 48 h

As for `COc1c(-c2nc3ccc(N4CCN(C)CC4)nc3[nH]2)cc(OC)c2c1nc(CCl)n2C`, the GI50 was 26.9 µM (inactive) in the assay with SK-MEL-28; 32.9 µM (inactive) in the assay on Hs-578T; 11.6 µM (inactive) in the assay with SK-MEL-2; 25.2 µM (inactive) in the assay with CCRF-CEM; 16.6 µM (inactive) in the assay on CAKI-1; 14.8 µM (inactive) in the assay on KM12. The GI50 is 16 µM (inactive) in the assay with T47D; 20.6 µM (inactive) in the assay with NCI-H460; 28.1 µM (inactive) with OVCAR-3; 10.5 µM (inactive) with RPMI-8226; 22.6 µM (inactive) in the assay on UACC-257; 56.9 µM (inactive) with NCI/ADR-RES. Besides, the GI50 was 14.4 µM (inactive) in the assay on COLO 205; 27.8 µM (inactive) in the assay on A549; 25.4 µM (inactive) in the assay with DU-145; 4.99 µM (inactive) with SF-539; 16.5 µM (inactive) in the assay on UO-31; 21.6 µM (inactive) in the assay on OVCAR-5.

With `COC(=O)[C@@]1(Cc2ccc(OC(C)=O)cc2)Cc2cc3ccccc3n2N1`, the GI50 was 54.6 µM (inactive) in the assay on SK-MEL-28; 82.8 µM (inactive) in the assay with Hs-578T; 18.2 µM (inactive) with SK-MEL-2; 18.2 µM (inactive) with SK-MEL-5; 26.5 µM (inactive) in the assay on CCRF-CEM; > 100 µM (inactive) with CAKI-1. For the same compound, the GI50 is 33.7 µM (inactive) in the assay on TK-10; 60.7 µM (inactive) in the assay on KM12; 24.8 µM (inactive) with T47D; 69.5 µM (inactive) in the assay on OVCAR-3; 26.6 µM (inactive) with RPMI-8226; 17.3 µM (inactive) with UACC-257. Further, the GI50 in the assay with NCI/ADR-RES was 26.5 µM (inactive); in the assay on COLO 205, 31.2 µM (inactive); in the assay on A549, 47.2 µM (inactive); in the assay on DU-145, 62.4 µM (inactive); in the assay on SF-539, 58.7 µM (inactive); in the assay on UO-31, 50.7 µM (inactive). The GI50 with OVCAR-5 is 94.4 µM (inactive).

As for `CCC(=O)C1(N2CCOCC2)CCN(CCCC(=O)c2ccc(F)cc2)CC1`, the GI50 with SK-MEL-28, in the assay with Hs-578T, in the assay with SK-MEL-2, in the assay on SK-MEL-5, in the assay on CCRF-CEM and in the assay with CAKI-1 was > 100 µM (inactive) each time. Also, the GI50 with TK-10, in the assay on KM12, in the assay on T47D, in the assay with NCI-H460, with OVCAR-3 and in the assay on RPMI-8226 was > 100 µM (inactive) throughout. Further, the GI50 with NCI/ADR-RES, in the assay with COLO 205, in the assay on A549, in the assay with DU-145, in the assay on SF-539 and in the assay with UO-31 was > 100 µM (inactive) throughout. In addition, the GI50 in the assay with OVCAR-5 was > 100 µM (inactive).

For the compound `Nc1nc(Cl)c(N)c(NCC2(CO)CCC(OCc3ccccc3)C2)n1` (stereo unspecified), the GI50 in the assay with SK-MEL-28 is > 100 µM (inactive); in the assay with Hs-578T it was > 100 µM (inactive); in the assay on SK-MEL-2, 84.1 µM (inactive); in the assay on SK-MEL-5 it was 0.305 µM (active); in the assay on CCRF-CEM, > 100 µM (inactive); in the assay on CAKI-1 it was > 100 µM (inactive). The GI50 in the assay with TK-10 was > 100 µM (inactive); in the assay on KM12 it was > 100 µM (inactive); with T47D it was 0.372 µM (active); in the assay with NCI-H460, > 100 µM (inactive); with OVCAR-3, > 100 µM (inactive); in the assay on UACC-257 it was 0.522 µM (active). Moreover, the GI50 with NCI/ADR-RES was 13.5 µM (inactive); in the assay with COLO 205, > 100 µM (inactive); with A549, > 100 µM (inactive); in the assay on DU-145 it was > 100 µM (inactive); in the assay with SF-539, > 100 µM (inactive); in the assay with UO-31 it was > 100 µM (inactive). The GI50 in the assay on OVCAR-5 is > 100 µM (inactive).

On to `O=C1NC(NNc2ccccc2)=N/C1=C\c1ccccc1O`, for which the GI50 in the assay with SK-MEL-28 is > 100 µM (inactive); in the assay on Hs-578T it was > 100 µM (inactive); in the assay with SK-MEL-2, 75.2 µM (inactive); in the assay with CCRF-CEM it was 0.0183 µM (active); in the assay on CAKI-1, 63.1 µM (inactive); with TK-10, 67.3 µM (inactive). Also, the GI50 in the assay on KM12 is 33.2 µM (inactive); in the assay with T47D, 34.1 µM (inactive); with NCI-H460, 45.6 µM (inactive); in the assay with OVCAR-3 it was 96.2 µM (inactive); in the assay with RPMI-8226, 81.5 µM (inactive); in the assay with UACC-257, 40.9 µM (inactive). Further, the GI50 is 29.6 µM (inactive) with NCI/ADR-RES; > 100 µM (inactive) with COLO 205; 72.6 µM (inactive) with A549; 67 µM (inactive) with DU-145; 77.6 µM (inactive) with SF-539; > 100 µM (inactive) with UO-31. In addition, the GI50 in the assay with OVCAR-5 is > 100 µM (inactive).

As to `CC(C)(C)c1cc2c(O)c(c1)Cc1cc(C(C#N)(Cc3ccc4ccccc4c3)Cc3ccc4ccccc4c3)cc(c1O)Cc1cc(C(C)(C)C)cc(c1O)Cc1cc(C(C#N)(Cc3ccc4ccccc4c3)Cc3ccc4ccccc4c3)cc(c1O)C2`, the GI50 in the assay on SK-MEL-28, with Hs-578T, in the assay on SK-MEL-2, with SK-MEL-5, in the assay on CCRF-CEM and with CAKI-1 was > 100 µM (inactive) in each case. The GI50 with TK-10, with KM12, in the assay on T47D, with NCI-H460, in the assay on OVCAR-3 and in the assay on RPMI-8226 was > 100 µM (inactive) in each case. The GI50 in the assay with UACC-257, in the assay with NCI/ADR-RES, in the assay on COLO 205, in the assay with A549, with DU-145 and in the assay with SF-539 was > 100 µM (inactive) in each case. Moreover, the GI50 with UO-31 and with OVCAR-5 was > 100 µM (inactive) throughout.

Take `N#Cc1ccc(-c2nc3c(N)nc(-c4ccccc4)nc3o2)cc1`: the GI50 in the assay on SK-MEL-28 was > 100 µM (inactive); in the assay with Hs-578T, > 100 µM (inactive); in the assay with SK-MEL-2 it was > 100 µM (inactive); with SK-MEL-5, > 100 µM (inactive); in the assay on CCRF-CEM, > 10 µM (inactive); with CAKI-1, > 100 µM (inactive). Besides, the GI50 in the assay on TK-10 was > 100 µM (inactive); with KM12, > 100 µM (inactive); with T47D, > 100 µM (inactive); in the assay on NCI-H460, > 100 µM (inactive); in the assay on OVCAR-3, 61.4 µM (inactive); in the assay with RPMI-8226, > 100 µM (inactive). The GI50 is > 100 µM (inactive) in the assay with UACC-257; 40.3 µM (inactive) with NCI/ADR-RES; > 100 µM (inactive) in the assay on COLO 205; 88.7 µM (inactive) in the assay on A549; 84.1 µM (inactive) with DU-145; 5.6 µM (inactive) with SF-539. For the same compound, the GI50 in the assay with UO-31 and in the assay on OVCAR-5 was > 100 µM (inactive) in each case.

Turning to `O=C(O)C1CC2C3CCC2C1C3=O` (stereo unspecified), the GI50 in the assay on SK-MEL-28, in the assay on Hs-578T, in the assay on SK-MEL-2, in the assay on SK-MEL-5, in the assay on CCRF-CEM and in the assay on CAKI-1 was > 100 µM (inactive) throughout. The GI50 in the assay on TK-10, in the assay with KM12, in the assay with T47D, in the assay with NCI-H460, with OVCAR-3 and in the assay with UACC-257 was > 100 µM (inactive) in each case. The GI50 in the assay on NCI/ADR-RES, with COLO 205, with A549, in the assay on DU-145, with SF-539 and in the assay with UO-31 was > 100 µM (inactive) in each case. The GI50 in the assay on OVCAR-5 is > 100 µM (inactive).

Consider `C/N=C(\Nc1cccc(C(F)(F)F)c1)SCc1ccc(N=C=S)cc1`, for which the GI50 was 21 µM (inactive) in the assay on SK-MEL-28; 14.7 µM (inactive) in the assay with Hs-578T; 12.3 µM (inactive) with SK-MEL-2; 16.3 µM (inactive) in the assay with SK-MEL-5; 23.4 µM (inactive) with CCRF-CEM; 16.5 µM (inactive) with CAKI-1. In addition, the GI50 with TK-10 was 11.4 µM (inactive); in the assay on KM12 it was 15.4 µM (inactive); in the assay on T47D, 13.8 µM (inactive); with NCI-H460, 12.9 µM (inactive); with RPMI-8226, 5.92 µM (inactive); in the assay on UACC-257, 14.3 µM (inactive). For the same compound, the GI50 in the assay with NCI/ADR-RES is 22.1 µM (inactive); with COLO 205, 16.6 µM (inactive); with A549, 18.1 µM (inactive); in the assay with DU-145, 17.4 µM (inactive); in the assay on SF-539 it was 17.5 µM (inactive); in the assay on UO-31, 15.1 µM (inactive). Besides, the GI50 in the assay with OVCAR-5 is 16.5 µM (inactive).

Consider `CCOC(=O)/C(=C\c1ccc(F)cc1)C(C)=O`, for which the GI50 is 36.1 µM (inactive) with Hs-578T; 21.2 µM (inactive) in the assay on SK-MEL-2; 24.4 µM (inactive) in the assay on SK-MEL-5; 26.3 µM (inactive) in the assay with CCRF-CEM; 24.3 µM (inactive) with CAKI-1; 21.6 µM (inactive) in the assay with TK-10. The GI50 was 24.3 µM (inactive) in the assay on KM12; 21.8 µM (inactive) with T47D; 32.5 µM (inactive) in the assay on NCI-H460; 32.8 µM (inactive) with OVCAR-3; 21.8 µM (inactive) with RPMI-8226; 19.2 µM (inactive) in the assay with UACC-257. Also, the GI50 with NCI/ADR-RES is 35.6 µM (inactive); in the assay with COLO 205 it was 36 µM (inactive); with A549, 45.3 µM (inactive); with DU-145, 23.2 µM (inactive); in the assay with SF-539, 34 µM (inactive); with UO-31 it was 16.2 µM (inactive). For the same compound, the GI50 with OVCAR-5 was 58.6 µM (inactive).

Values taken from ChEMBL document CHEMBL1201862, “PubChem BioAssay data set” (2004).
